The values below come from patent publication US20250171457A1, “NITROGEN-CONTAINING HETEROCYCLIC COMPOUND HAVING NRF2 ACTIVATION EFFECT” (CHUGAI SEIYAKU KABUSHIKI KAISHA, priority 2022, published 2025).

Molecules are shown by their SMILES.

In general, EC50 refers to the concentration that produces a half-maximal response.

This assay deals with Nrf2 transcriptional activity (pARE-Luc reporter) in HepG2 cells. Kind of assay: In vitro Nrf2 transcriptional activity measurement by ARE-dependent reporter assay in HepG2 cell. Format: cell-based, human. The following applies: Homo sapiens; HepG2 cells transfected with pARE-Luc, 4 hours at 37° C.; luciferase activity of Example 1-54 or Example 17-23 at 3.75 μM defined as 100%. An outline of the steps:
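HepG2 cells transfected with pGL4.37 (pARE-Luc), replated onto compound and incubated 4 h at 37° C; luciferase read by Bright-Glo luminescence. Response normalized to 100% set by a reference compound at 3.75 μM; EC50 from dose-response curve.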
In general terms: Reporter assays use an easily measured gene product as a stand-in for the process of interest.
As to `COc1cc(C(=O)N2COc3c(cccc3-c3cc(N4CCOCC4)c(C(=O)O)cc3F)C2)c(Cl)cc1-c1ccncc1` [Compound 2-5, 4-[3-(2-Chloro-5-methoxy-4-pyridin-4-ylbenzoyl)-2,4-dihydro-1,3-benzoxazin-8-yl]-5-fluoro-2-morpholin-4-ylbenzoic acid], the response was half-maximal at 2.4 nM (EC50).

`COc1cc(C(=O)N2COc3c(cccc3-c3cc(N4CCOCC4)c(C(=O)O)cc3F)C2)c(Cl)cc1-c1cnn(C)c1` [Compound 2-6, 4-[3-[2-Chloro-5-methoxy-4-(1-methylpyrazol-4-yl)benzoyl]-2,4-dihydro-1,3-benzoxazin-8-yl]-5-fluoro-2-morpholin-4-ylbenzoic acid]: the response was half-maximal at 6 nM (EC50).

In turn, `CC(C)(CO)n1cc(-c2cc(Cl)c(C(=O)N3COc4c(cccc4-c4cc(N5CCOCC5)c(C(=O)O)cc4F)C3)c(Cl)c2)cn1` [Compound 3-1, 4-[3-[2,6-Dichloro-4-[1-(1-hydroxy-2-methylpropan-2-yl)pyrazol-4-yl]benzoyl]-2,4-dihydro-1,3-benzoxazin-8-yl]-5-fluoro-2-morpholin-4-ylbenzoic acid] yielded an EC50 of 1.3 nM.

On to `CN1CCn2ncc(-c3cc(Cl)c(C(=O)N4COc5c(cccc5-c5cc(N6C7CCC6COC7)c(C(=O)O)cc5F)C4)c(Cl)c3)c2C1` [Compound 3-2, 4-[3-[2,6-Dichloro-4-(5-methyl-6,7-dihydro-4H-pyrazolo[1,5-a]pyrazin-3-yl)benzoyl]-2,4-dihydro-1,3-benzoxazin-8-yl]-5-fluoro-2-(3-oxa-8-azabicyclo[3.2.1]octan-8-yl)benzoic acid], for which the EC50 was 6.8 nM. This EC50 lies about 5.2-fold higher than the previous one.

Take `COc1ccc(-c2cc(Cl)c(C(=O)N3COc4c(cccc4-c4cc(N5C6CCC5COC6)c(C(=O)O)cc4F)C3)c(Cl)c2)nn1` [Compound 3-3, 4-[3-[2,6-Dichloro-4-(6-methoxypyridazin-3-yl)benzoyl]-2,4-dihydro-1,3-benzoxazin-8-yl]-5-fluoro-2-(3-oxa-8-azabicyclo[3.2.1]octan-8-yl)benzoic acid]: a half-maximal effect (EC50) was put at 9.4 nM.

Regarding `Cn1nnc2c(-c3cc(Cl)c(C(=O)N4COc5c(cccc5-c5cc(N6C7CCC6COC7)c(C(=O)O)cc5F)C4)c(Cl)c3)cccc21` [Compound 3-4, 4-[3-[2,6-Dichloro-4-(1-methylbenzotriazol-4-yl)benzoyl]-2,4-dihydro-1,3-benzoxazin-8-yl]-5-fluoro-2-(3-oxa-8-azabicyclo[3.2.1]octan-8-yl)benzoic acid], a half-maximal effect (EC50) was put at 6.2 nM.

For `Cn1ncc2c(-c3cc(Cl)c(C(=O)N4COc5c(cccc5-c5cc(N6C7CCC6COC7)c(C(=O)O)cc5F)C4)c(Cl)c3)cncc21` [Compound 3-5, 4-[3-[2,6-Dichloro-4-(1-methylpyrazolo[3,4-c]pyridin-4-yl)benzoyl]-2,4-dihydro-1,3-benzoxazin-8-yl]-5-fluoro-2-(3-oxa-8-azabicyclo[3.2.1]octan-8-yl)benzoic acid], a half-maximal response (EC50) required 6.9 nM.

In turn, `Cn1cc2cncc(-c3cc(Cl)c(C(=O)N4COc5c(cccc5-c5cc(N6C7CCC6COC7)c(C(=O)O)cc5F)C4)c(Cl)c3)c2n1` [Compound 3-6, 4-[3-[2,6-Dichloro-4-(2-methylpyrazolo[4,3-c]pyridin-7-yl)benzoyl]-2,4-dihydro-1,3-benzoxazin-8-yl]-5-fluoro-2-(3-oxa-8-azabicyclo[3.2.1]octan-8-yl)benzoic acid] had a concentration giving a half-maximal response (EC50) of 9 nM. The EC50 values of the last two molecules are within 1.5-fold of each other.

`Cn1ncc2c(-c3cc(Cl)c(C(=O)N4COc5c(cccc5-c5cc(N6C7CCC6COC7)c(C(=O)O)cc5F)C4)c(Cl)c3)cccc21` [Compound 3-7, 4-[3-[2,6-Dichloro-4-(1-methylindazol-4-yl)benzoyl]-2,4-dihydro-1,3-benzoxazin-8-yl]-5-fluoro-2-(3-oxa-8-azabicyclo[3.2.1]octan-8-yl)benzoic acid] gave an EC50 of 9.6 nM.

Regarding `Cc1nc2c(-c3cc(Cl)c(C(=O)N4COc5c(cccc5-c5cc(N6C7CCC6COC7)c(C(=O)O)cc5F)C4)c(Cl)c3)cncc2n1C` [Compound 3-8, 4-[3-[2,6-Dichloro-4-(2,3-dimethylimidazo[4,5-c]pyridin-7-yl)benzoyl]-2,4-dihydro-1,3-benzoxazin-8-yl]-5-fluoro-2-(3-oxa-8-azabicyclo[3.2.1]octan-8-yl)benzoic acid], a half-maximal response (EC50) required 17 nM.

Molecule `Cn1nnc2cc(-c3cc(Cl)c(C(=O)N4COc5c(cccc5-c5cc(N6C7CCC6COC7)c(C(=O)O)cc5F)C4)c(Cl)c3)cnc21` [Compound 3-9, 4-[3-[2,6-Dichloro-4-(3-methyltriazolo[4,5-b]pyridin-6-yl)benzoyl]-2,4-dihydro-1,3-benzoxazin-8-yl]-5-fluoro-2-(3-oxa-8-azabicyclo[3.2.1]octan-8-yl)benzoic acid] came in with an EC50 of 10 nM.

For the molecule `Cn1nc2cncc(-c3cc(Cl)c(C(=O)N4COc5c(cccc5-c5cc(N6C7CCC6COC7)c(C(=O)O)cc5F)C4)c(Cl)c3)c2n1` [Compound 3-10, 4-[3-[2,6-Dichloro-4-(2-methyltriazolo[4,5-c]pyridin-7-yl)benzoyl]-2,4-dihydro-1,3-benzoxazin-8-yl]-5-fluoro-2-(3-oxa-8-azabicyclo[3.2.1]octan-8-yl)benzoic acid], the EC50 came to 4.7 nM.

Molecule `Cn1nnc2c(-c3cc(Cl)c(C(=O)N4COc5c(cccc5-c5cc(N6C7CCC6COC7)c(C(=O)O)cc5F)C4)c(Cl)c3)cncc21` [Compound 3-11, 4-[3-[2,6-Dichloro-4-(3-methyltriazolo[4,5-c]pyridin-7-yl)benzoyl]-2,4-dihydro-1,3-benzoxazin-8-yl]-5-fluoro-2-(3-oxa-8-azabicyclo[3.2.1]octan-8-yl)benzoic acid] came in with an EC50 of 5.7 nM.

Molecule `Cn1cc2cc(-c3cc(Cl)c(C(=O)N4COc5c(cccc5-c5cc(N6C7CCC6COC7)c(C(=O)O)cc5F)C4)c(Cl)c3)ccc2n1` [Compound 3-12, 4-[3-[2,6-Dichloro-4-(2-methylindazol-5-yl)benzoyl]-2,4-dihydro-1,3-benzoxazin-8-yl]-5-fluoro-2-(3-oxa-8-azabicyclo[3.2.1]octan-8-yl)benzoic acid] came in with an EC50 of 8.7 nM.

`Cn1cc2nc(-c3cc(Cl)c(C(=O)N4COc5c(cccc5-c5cc(N6C7CCC6COC7)c(C(=O)O)cc5F)C4)c(Cl)c3)ccc2n1` [Compound 3-13, 4-[3-[2,6-Dichloro-4-(2-methylpyrazolo[4,3-b]pyridin-5-yl)benzoyl]-2,4-dihydro-1,3-benzoxazin-8-yl]-5-fluoro-2-(3-oxa-8-azabicyclo[3.2.1]octan-8-yl)benzoic acid] came in with an EC50 of 9.7 nM.

Regarding `Cn1ncc2cc(-c3cc(Cl)c(C(=O)N4COc5c(cccc5-c5cc(N6C7CCC6COC7)c(C(=O)O)cc5F)C4)c(Cl)c3)cnc21` [Compound 3-14, 4-[3-[2,6-Dichloro-4-(1-methylpyrazolo[3,4-b]pyridin-5-yl)benzoyl]-2,4-dihydro-1,3-benzoxazin-8-yl]-5-fluoro-2-(3-oxa-8-azabicyclo[3.2.1]octan-8-yl)benzoic acid], the EC50 worked out at 8.8 nM. This EC50 and that of the molecule before are within 1.5-fold of each other.

`Cn1ncc2cc(-c3cc(Cl)c(C(=O)N4COc5c(cccc5-c5cc(N6C7CCC6COC7)c(C(=O)O)cc5F)C4)c(Cl)c3)ccc21` [Compound 3-15, 4-[3-[2,6-Dichloro-4-(1-methylindazol-5-yl)benzoyl]-2,4-dihydro-1,3-benzoxazin-8-yl]-5-fluoro-2-(3-oxa-8-azabicyclo[3.2.1]octan-8-yl)benzoic acid] registered an EC50 of 8.4 nM.

`Cn1ncc2c(-c3cc(Cl)c(C(=O)N4COc5c(cccc5-c5cc(N6C7CCC6COC7)c(C(=O)O)cc5F)C4)c(Cl)c3)ccnc21` [Compound 3-16, 4-[3-[2,6-Dichloro-4-(1-methylpyrazolo[3,4-b]pyridin-4-yl)benzoyl]-2,4-dihydro-1,3-benzoxazin-8-yl]-5-fluoro-2-(3-oxa-8-azabicyclo[3.2.1]octan-8-yl)benzoic acid] returned an EC50 of 11 nM.

For the molecule `Cn1nc2nccc(-c3cc(Cl)c(C(=O)N4COc5c(cccc5-c5cc(N6C7CCC6COC7)c(C(=O)O)cc5F)C4)c(Cl)c3)c2n1` [Compound 3-17, 4-[3-[2,6-Dichloro-4-(2-methyltriazolo[4,5-b]pyridin-7-yl)benzoyl]-2,4-dihydro-1,3-benzoxazin-8-yl]-5-fluoro-2-(3-oxa-8-azabicyclo[3.2.1]octan-8-yl)benzoic acid], it took 12 nM to reach a half-maximal effect (EC50). This EC50 and that of the molecule before are within 1.5-fold of each other.

On to `O=C(O)c1cc(F)c(-c2cccc3c2OCN(C(=O)c2c(Cl)cc(-c4ccn5cncc5c4)cc2Cl)C3)cc1N1C2CCC1COC2` [Compound 3-18, 4-[3-(2,6-Dichloro-4-imidazo[1,5-a]pyridin-7-ylbenzoyl)-2,4-dihydro-1,3-benzoxazin-8-yl]-5-fluoro-2-(3-oxa-8-azabicyclo[3.2.1]octan-8-yl)benzoic acid], for which the EC50 was 20 nM.

Regarding `Cn1nnc2c(-c3cc(Cl)c(C(=O)N4COc5c(cccc5-c5cc(N6C7CCC6COC7)c(C(=O)O)cc5F)C4)c(Cl)c3)ccnc21` [Compound 3-19, 4-[3-[2,6-Dichloro-4-(3-methyltriazolo[4,5-b]pyridin-7-yl)benzoyl]-2,4-dihydro-1,3-benzoxazin-8-yl]-5-fluoro-2-(3-oxa-8-azabicyclo[3.2.1]octan-8-yl)benzoic acid], the EC50 stood at 8 nM. This EC50 lies about 2.5-fold lower than the previous one.

`Cn1nc2cc(-c3cc(Cl)c(C(=O)N4COc5c(cccc5-c5cc(N6C7CCC6COC7)c(C(=O)O)cc5F)C4)c(Cl)c3)cnc2n1` [Compound 3-20, 4-[3-[2,6-Dichloro-4-(2-methyltriazolo[4,5-b]pyridin-6-yl)benzoyl]-2,4-dihydro-1,3-benzoxazin-8-yl]-5-fluoro-2-(3-oxa-8-azabicyclo[3.2.1]octan-8-yl)benzoic acid] returned an EC50 of 9 nM.

`Cn1cc(-c2cc(Cl)c(C(=O)N3COc4c(cccc4-c4cc(N5C6CCC5COC6)c(C(=O)O)cc4F)C3)c(Cl)c2)c2nccnc21` [Compound 3-21, 4-[3-[2,6-Dichloro-4-(5-methylpyrrolo[2,3-b]pyrazin-7-yl)benzoyl]-2,4-dihydro-1,3-benzoxazin-8-yl]-5-fluoro-2-(3-oxa-8-azabicyclo[3.2.1]octan-8-yl)benzoic acid] returned a half-maximal effective concentration (EC50) of 6.4 nM.
